≈ marks a conversion by molar mass, not a printed value. Residues, ends and D or L forms follow the SMILES beside them.
Assay: Solubility in water
Assay type: physicochemical

Row | solubility | SMILES
1 | 1000 µg/mL (≈ 549 µM) | CC(C)C[C@H](NC(=O)[C@H](CCC(=O)O)NC(=O)[C@H](CCC(N)=O)NC(=O)[C@H](Cc1ccccc1)NC(=O)[C@H](CCCNC(=N)N)NC(=O)[C@@H](NC(=O)[C@H](Cc1ccccc1)NC(=O)[C@H](CCCCN)NC(=O)[C@H](CCC(N)=O)NC(=O)[C@H](CCCNC(=N)N)NC(=O)CNC(=O)[C@H](CCC(=O)O)NC(=O)[C@@H](N)CC(=O)O)C(C)C)C(=O)N[C@@H](C)C(=O)N[C@H](C(=O)O)C(C)C [P34] (H-DEGRQKFVRFQELAV-OH; N-terminus and C-terminus assumed)
2 | 10000 µg/mL (≈ 5400 µM) | CC(C)C[C@H](NC(=O)[C@H](C)NC(=O)[C@H](CCC(N)=O)NC(=O)[C@H](Cc1c[nH]cn1)NC(=O)[C@H](CO)NC(=O)[C@H](Cc1ccc(O)cc1)NC(=O)[C@H](Cc1ccccc1)NC(=O)CNC(=O)[C@H](CC(N)=O)NC(=O)[C@@H](N)CCC(N)=O)C(=O)N[C@@H](Cc1c[nH]cn1)C(=O)N[C@@H](C)C(=O)N[C@@H](Cc1c[nH]c2ccccc12)C(=O)N[C@@H](Cc1c[nH]cn1)C(=O)N[C@@H](CCCNC(=N)N)C(=O)O [P25] (H-QNGFYSHQALHAWHR-OH; N-terminus and C-terminus assumed)
